Measured values: patent publication US11498899B2, “Nitrone herbicides” (FMC Corporation, priority 2016, dated 2022)

Key:
[1] = system: barnyardgrass (Echinochloa crus-galli); assay: Test A preemergence, visual injury rating 0-100 (0 no effect, 100 complete control); format: in vivo
[2] = system: foxtail, giant (giant foxtail, Setaria faberii); assay: Test A preemergence, visual injury rating 0-100; format: in vivo
kochia (Kochia scoparia) [3] = assay: Test A preemergence, visual injury rating 0-100; format: in vivo
[4] = system: pigweed (Amaranthus retroflexus); assay: Test A preemergence, visual injury rating 0-100; format: in vivo
[5] = system: ragweed (common ragweed, Ambrosia elatior); assay: Test A preemergence, visual injury rating 0-100; format: in vivo
[6] = system: ryegrass, Italian (Italian ryegrass, Lolium multiflorum); assay: Test A preemergence, visual injury rating 0-100; format: in vivo
[7] = system: barnyardgrass (Echinochloa crus-galli); assay: Test A postemergence, visual injury rating 0-100; format: in vivo; details: 0 to 100 scale
[8] = system: blackgrass (Alopecurus myosuroides); assay: Test A postemergence, visual injury rating 0-100; format: in vivo; details: 0 to 100 scale
corn (Zea mays) = assay: Test A postemergence, visual injury rating 0-100; format: in vivo; details: 0 to 100 scale
[9] = system: foxtail, giant (giant foxtail, Setaria faberii); assay: Test A postemergence, visual injury rating 0-100; format: in vivo; details: 0 to 100 scale
[10] = system: galium (catchweed bedstraw, Galium aparine); assay: Test A postemergence, visual injury rating 0-100; format: in vivo; details: 0 to 100 scale
kochia (Kochia scoparia) [11] = assay: Test A postemergence, visual injury rating 0-100; format: in vivo; details: 0 to 100 scale
[12] = system: pigweed (Amaranthus retroflexus); assay: Test A postemergence, visual injury rating 0-100; format: in vivo; details: 0 to 100 scale
[13] = system: ragweed (common ragweed, Ambrosia elatior); assay: Test A postemergence, visual injury rating 0-100; format: in vivo; details: 0 to 100 scale
[14] = system: ryegrass, Italian (Italian ryegrass, Lolium multiflorum); assay: Test A postemergence, visual injury rating 0-100; format: in vivo; details: 0 to 100 scale
[15] = system: wheat (Triticum aestivum); assay: Test A postemergence, visual injury rating 0-100; format: in vivo; details: 0 to 100 scale
[16] = system: ducksalad (Heteranthera limosa); assay: Test B flooded paddy test, visual rating 0-100; details: Flood, 250 g ai/ha, applied to paddy water, rated after 13 to 15 days
[17] = system: barnyardgrass (Echinochloa crus-galli); assay: Test B flooded paddy test, visual rating 0-100; details: Flood, 250 g ai/ha, applied to paddy water, rated after 13 to 15 days
rice (Oryza sativa) = assay: Test B flooded paddy test, visual rating 0-100 (0 no effect, 100 complete control); details: Flood, 250 g ai/ha, applied to paddy water, rated after 13 to 15 days

Row | SMILES | Barnyardgrass plant response rating (0 to 100 scale) ([1]; 125 g ai/ha) | Barnyardgrass plant response rating (0 to 100 scale) ([1]; 500 g ai/ha) | Foxtail, Giant plant response rating (0 to 100 scale) ([2]; 125 g ai/ha) | Foxtail, Giant plant response rating (0 to 100 scale) ([2]; 500 g ai/ha) | Kochia plant response rating (0 to 100 scale) (kochia (Kochia scoparia) [3]; 125 g ai/ha) | Kochia plant response rating (0 to 100 scale) (kochia (Kochia scoparia) [3]; 500 g ai/ha) | Pigweed plant response rating (0 to 100 scale) ([4]; 125 g ai/ha) | Pigweed plant response rating (0 to 100 scale) ([4]; 500 g ai/ha) | Ragweed plant response rating (0 to 100 scale) ([5]; 125 g ai/ha) | Ragweed plant response rating (0 to 100 scale) ([5]; 500 g ai/ha) | Ryegrass, Italian plant response rating (0 to 100 scale) ([6]; 125 g ai/ha) | Ryegrass, Italian plant response rating (0 to 100 scale) ([6]; 500 g ai/ha) | Barnyardgrass plant response rating ([7]; 125 g ai/ha) | Barnyardgrass plant response rating ([7]; 500 g ai/ha) | Blackgrass plant response rating ([8]; 125 g ai/ha) | Blackgrass plant response rating ([8]; 500 g ai/ha) | Corn plant response rating (corn (Zea mays); 125 g ai/ha) | Corn plant response rating (corn (Zea mays); 500 g ai/ha) | Foxtail, Giant plant response rating ([9]; 125 g ai/ha) | Foxtail, Giant plant response rating ([9]; 500 g ai/ha) | further results
1 | CC1=[N+]([O-])C(C(=O)Nc2cccc(F)c2F)C(c2cccc(F)c2C)C1 (racemic) [Compound 78] | 90 | 90 | 90 | 90 | 10 | 60 | 0 | 80 | 20 | 70 | 30 | 70 | 70 | 80 | 50 | 70 | 0 | 50 | 80 | 90 | Galium plant response rating ([10]; 125 g ai/ha): 60; Galium plant response rating ([10]; 500 g ai/ha): 60; Kochia plant response rating (kochia (Kochia scoparia) [11]; 125 g ai/ha): 20; Kochia plant response rating (kochia (Kochia scoparia) [11]; 500 g ai/ha): 50; Pigweed plant response rating ([12]; 125 g ai/ha): 0; Pigweed plant response rating ([12]; 500 g ai/ha): 20; Ragweed plant response rating ([13]; 125 g ai/ha): 0; Ragweed plant response rating ([13]; 500 g ai/ha): 60; Ryegrass, Italian plant response rating ([14]; 125 g ai/ha): 10; Ryegrass, Italian plant response rating ([14]; 500 g ai/ha): 50; Wheat plant response rating ([15]; 125 g ai/ha): 40; Wheat plant response rating ([15]; 500 g ai/ha): 60; Ducksalad plant response rating (0 to 100 scale) [16]: 100; Barnyardgrass plant response rating (0 to 100 scale) [17]: 75; Rice plant response rating (0 to 100 scale) (rice (Oryza sativa)): 0
2 | CC1=[N+]([O-])C(C(=O)Nc2cccc(F)c2F)C(c2cc(C)ccc2C)C1 (racemic) [Compound 79] | 90 | 90 | 80 | 90 | 0 | 20 | 0 | 0 | 0 | 0 | 30 | 50 | 70 | 80 | 20 | 70 | 20 | 70 | 70 | 90 | Galium plant response rating ([10]; 125 g ai/ha): 20; Galium plant response rating ([10]; 500 g ai/ha): 30; Kochia plant response rating (kochia (Kochia scoparia) [11]; 125 g ai/ha): 0; Kochia plant response rating (kochia (Kochia scoparia) [11]; 500 g ai/ha): 0; Pigweed plant response rating ([12]; 125 g ai/ha): 0; Pigweed plant response rating ([12]; 500 g ai/ha): 0; Ragweed plant response rating ([13]; 125 g ai/ha): 30; Ragweed plant response rating ([13]; 500 g ai/ha): 30; Ryegrass, Italian plant response rating ([14]; 125 g ai/ha): 0; Ryegrass, Italian plant response rating ([14]; 500 g ai/ha): 50; Wheat plant response rating ([15]; 125 g ai/ha): 20; Wheat plant response rating ([15]; 500 g ai/ha): 70; Ducksalad plant response rating (0 to 100 scale) [16]: 100; Barnyardgrass plant response rating (0 to 100 scale) [17]: 60; Rice plant response rating (0 to 100 scale) (rice (Oryza sativa)): 0
3 | CC1=[N+]([O-])C(C(=O)Nc2cccc(F)c2F)C(c2cc(F)ccc2C)C1 (racemic) [Compound 81] | 90 | 90 | 60 | 90 | 0 | 50 | 0 | 20 | 0 | 0 | 0 | 10 | 80 | 80 | 0 | 50 | 20 | 20 | 60 | 80 | Galium plant response rating ([10]; 125 g ai/ha): 0; Galium plant response rating ([10]; 500 g ai/ha): 30; Kochia plant response rating (kochia (Kochia scoparia) [11]; 125 g ai/ha): 0; Kochia plant response rating (kochia (Kochia scoparia) [11]; 500 g ai/ha): 0; Pigweed plant response rating ([12]; 125 g ai/ha): 0; Pigweed plant response rating ([12]; 500 g ai/ha): 0; Ragweed plant response rating ([13]; 125 g ai/ha): 0; Ragweed plant response rating ([13]; 500 g ai/ha): 0; Ryegrass, Italian plant response rating ([14]; 125 g ai/ha): 0; Ryegrass, Italian plant response rating ([14]; 500 g ai/ha): 20; Wheat plant response rating ([15]; 125 g ai/ha): 0; Wheat plant response rating ([15]; 500 g ai/ha): 30; Ducksalad plant response rating (0 to 100 scale) [16]: 100; Barnyardgrass plant response rating (0 to 100 scale) [17]: 25; Rice plant response rating (0 to 100 scale) (rice (Oryza sativa)): 0
4 | CC1=[N+]([O-])C(C(=O)Nc2cccc(F)c2F)C(c2cc(C)nc(OC(F)F)c2)C1 (racemic) [Compound 83] | 90 | 90 | 90 | 90 | 0 | 50 | 60 | 90 | 10 | 90 | 70 | 90 | 80 | 90 | 70 | 80 | 70 | 90 | 80 | 90 | Galium plant response rating ([10]; 125 g ai/ha): 60; Galium plant response rating ([10]; 500 g ai/ha): 70; Kochia plant response rating (kochia (Kochia scoparia) [11]; 125 g ai/ha): 30; Kochia plant response rating (kochia (Kochia scoparia) [11]; 500 g ai/ha): 50; Pigweed plant response rating ([12]; 125 g ai/ha): 30; Pigweed plant response rating ([12]; 500 g ai/ha): 80; Ragweed plant response rating ([13]; 125 g ai/ha): 30; Ragweed plant response rating ([13]; 500 g ai/ha): 70; Ryegrass, Italian plant response rating ([14]; 125 g ai/ha): 60; Ryegrass, Italian plant response rating ([14]; 500 g ai/ha): 80; Wheat plant response rating ([15]; 125 g ai/ha): 60; Wheat plant response rating ([15]; 500 g ai/ha): 80; Ducksalad plant response rating (0 to 100 scale) [16]: 75; Barnyardgrass plant response rating (0 to 100 scale) [17]: 80; Rice plant response rating (0 to 100 scale) (rice (Oryza sativa)): 0
5 | CC1=[N+]([O-])C(C(=O)Nc2cccc(F)c2F)C(c2cc(F)c(F)c(Oc3ncc(F)cn3)c2)C1 (racemic) [Compound 85] | 80 | 100 | 80 | 100 | 0 | 10 | 50 | 0 | 0 | 0 | 60 | 90 | 40 | 80 | 60 | 80 | 60 | 90 | 60 | 80 | Galium plant response rating ([10]; 125 g ai/ha): 20; Galium plant response rating ([10]; 500 g ai/ha): 30; Kochia plant response rating (kochia (Kochia scoparia) [11]; 125 g ai/ha): 0; Kochia plant response rating (kochia (Kochia scoparia) [11]; 500 g ai/ha): 0; Pigweed plant response rating ([12]; 125 g ai/ha): 0; Pigweed plant response rating ([12]; 500 g ai/ha): 0; Ragweed plant response rating ([13]; 125 g ai/ha): 0; Ragweed plant response rating ([13]; 500 g ai/ha): 0; Ryegrass, Italian plant response rating ([14]; 125 g ai/ha): 0; Ryegrass, Italian plant response rating ([14]; 500 g ai/ha): 60; Wheat plant response rating ([15]; 125 g ai/ha): 50; Wheat plant response rating ([15]; 500 g ai/ha): 90; Ducksalad plant response rating (0 to 100 scale) [16]: 0; Barnyardgrass plant response rating (0 to 100 scale) [17]: 0; Rice plant response rating (0 to 100 scale) (rice (Oryza sativa)): 0
